Measurements: publication PMC4853472, “Trapping mammalian protein complexes in viral particles” (Nature Communications, 2016)

Assays:
[1] = target: T1, HMG-CoA reductase enzyme (HMGCR) (Homo sapiens, UniProt P04035); assay: Virotrap: trapping in GAG-eDHFR virus-like particles, LC-MS/MS; assay type: cell-based; conditions: MTX-PEG-simvastatin conjugate, not free simvastatin; 1 uM on HEK293T producer cells; DMSO and unrelated-bait controls
T1 construct: endogenous protein of HEK293T cells, trapped in GAG-eDHFR virus-like particles, identified by LC-MS/MS
T1 sequence (P04035 1-888): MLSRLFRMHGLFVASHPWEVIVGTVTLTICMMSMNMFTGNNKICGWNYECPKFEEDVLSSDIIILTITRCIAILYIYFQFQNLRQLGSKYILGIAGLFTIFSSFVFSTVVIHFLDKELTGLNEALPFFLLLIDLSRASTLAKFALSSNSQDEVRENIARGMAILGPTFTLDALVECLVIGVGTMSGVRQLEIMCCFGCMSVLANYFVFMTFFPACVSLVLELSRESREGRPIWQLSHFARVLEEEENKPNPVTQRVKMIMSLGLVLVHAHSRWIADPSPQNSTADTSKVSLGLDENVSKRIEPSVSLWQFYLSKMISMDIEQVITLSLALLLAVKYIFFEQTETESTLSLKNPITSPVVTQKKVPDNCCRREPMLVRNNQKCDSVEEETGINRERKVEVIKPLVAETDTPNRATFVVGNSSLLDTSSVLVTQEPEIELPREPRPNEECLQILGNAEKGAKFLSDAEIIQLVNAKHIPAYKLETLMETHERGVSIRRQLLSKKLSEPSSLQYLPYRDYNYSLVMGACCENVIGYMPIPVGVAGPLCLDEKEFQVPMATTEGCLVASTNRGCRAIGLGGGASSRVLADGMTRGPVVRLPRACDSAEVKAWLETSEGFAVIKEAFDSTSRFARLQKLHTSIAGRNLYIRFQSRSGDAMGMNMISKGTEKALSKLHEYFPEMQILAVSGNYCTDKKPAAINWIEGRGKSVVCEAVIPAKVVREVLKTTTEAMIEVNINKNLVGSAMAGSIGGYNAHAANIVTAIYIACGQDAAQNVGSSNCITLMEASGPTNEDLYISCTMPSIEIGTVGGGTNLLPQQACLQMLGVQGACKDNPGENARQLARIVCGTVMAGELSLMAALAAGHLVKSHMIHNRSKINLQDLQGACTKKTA

MAL TIR (Homo sapiens) = MAL TIR (Homo sapiens) (UniProt P58753); conditions: cited from earlier work
Sequence of MAL TIR (Homo sapiens) (P58753 81-216): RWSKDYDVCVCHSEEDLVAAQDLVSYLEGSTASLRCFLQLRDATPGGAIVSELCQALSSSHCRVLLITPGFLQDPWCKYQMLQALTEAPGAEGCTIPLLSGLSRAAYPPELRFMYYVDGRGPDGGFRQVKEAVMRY

Compound	Protein trapped in virus-like particles (LC-MS/MS) [1]	Kd (MAL TIR (Homo sapiens))
C[C@H]1C=C2C=C[C@H](C)[C@H](CC[C@@H]3C[C@@H](O)CC(=O)O3)[C@H]2[C@@H](OC(=O)C(C)(C)Cc2cn(CCOCCOCCOCCOCCOCCNC(=O)CC[C@H](NC(=O)c3ccc(N(C)Cc4cnc5nc(N)nc(N)c5n4)cc3)C(=O)O)nn2)C1 [MTX-linked simvastatin]	consistent enrichment of the known targets for simvastatin (HMG-CoA reductase enzyme (HMGCR))	
MYD88 TIR (from UniProt Q99836)		8 µM
